# Measured values reported in US20080200337A1, “Mixed herbicide compositions for paddy field” (Bayer CropScience, priority 2007, published 2008).
# Assays:
# Format in all cases: in vivo
# [1] = test system: annual broad-leaved weeds; test: Weed control, flooded paddy field, treatment at 1 leaf-stage (Test Example 1); conditions: after 4 weeks
# Experimental: (§1) Carrier: 5 parts by weight of acetone
# (§2) Surfactant: one part by weight of benzyloxy polyglycol ether.
# (§3) Above described carrier and surfactant are mixed with one part by weight of the active compound ((a) ingredient and (b) ingredient) and the resulting preparation is then diluted with water to obtain given amount of the test drug (the formulation).
# (§4) In a greenhouse, seeds or tubers of Echinochloa, Scirpus juncoides Roxburgh, Monochoria vaginalis Presl, annual broad-leaved weeds (Lindernia procumbens Philcox, Lindernia dubia L. Penn., Rotala indica Koehne, Elatine triandra Schk, Ammannia multiflora Roxb.), Cyperus serotinus Rottboel and Sagittaria pygmaea Miq. were inoculated in a 500 cm^2 pot filled with paddy field soil. After 2 leaf-stage of rice were transplanted, water was poured to a depth of about 3 cm. At 1.0 leaf-stage of Echinochloa oryzicola Vasing, a prescribed, diluted solution of the formulation of each active compound and each herbicidal compound in the table was separately or simultaneously applied to the surface of water. After the treatment, the water depth of 3 cm was maintained, and herbicidal effect was examined after 4 weeks. In the assessment of the herbicidal effect and the phytotoxicity, 100% refers to complete death and 0% refers to no effect or no phytotoxicity.
# [2] = test system: Monochoria vaginalis Presl; test: as above; conditions: after 4 weeks
# Experimental: as §1, §2, §3, §4
# [3] = test system: Scirpus juncoides Roxburgh; test: as above; conditions: after 4 weeks
# Experimental: as §1, §2, §3, §4
# [4] = test system: Cyperus serotinus Rottboel; test: as above; conditions: after 4 weeks
# Experimental: as §1, §2, §3, §4
# [5] = test system: Sagittaria pygmaea Miq.; test: as above; conditions: after 4 weeks
# Experimental: as §1, §2, §3, §4
# [6] = test system: Echinochloa; test: as above; conditions: after 4 weeks
# Experimental: as §1, §2, §3, §4
# [7] = test system: transplanted rice; test: Phytotoxicity, flooded paddy field, treatment at 3 leaf-stage (Test Example 2)
# Experimental: as §1, §2, §3
# as §4, with “Echinochloa, Cyperus difformis L.,” for “Echinochloa,”, “3.0” for “1.0”, “Echinochloa,” for “Echinochloa oryzicola Vasing,”
# [8] = test system: annual broad-leaved weeds; test: Weed control, flooded paddy field, treatment at 3 leaf-stage (Test Example 2); conditions: after 4 weeks
# Experimental: as §1, §2, §3
# as §4, with “Echinochloa, Cyperus difformis L.,” for “Echinochloa,”, “3.0” for “1.0”, “Echinochloa,” for “Echinochloa oryzicola Vasing,”
# [9] = test system: Monochoria vaginalis Presl; test: as above; conditions: after 4 weeks
# Experimental: as §1, §2, §3
# as §4, with “Echinochloa, Cyperus difformis L.,” for “Echinochloa,”, “3.0” for “1.0”, “Echinochloa,” for “Echinochloa oryzicola Vasing,”
# [10] = test system: Scirpus juncoides Roxburgh; test: as above; conditions: after 4 weeks
# Experimental: as §1, §2, §3
# as §4, with “Echinochloa, Cyperus difformis L.,” for “Echinochloa,”, “3.0” for “1.0”, “Echinochloa,” for “Echinochloa oryzicola Vasing,”
# [11] = test system: Cyperus serotinus Rottboel; test: as above; conditions: after 4 weeks
# Experimental: as §1, §2, §3
# as §4, with “Echinochloa, Cyperus difformis L.,” for “Echinochloa,”, “3.0” for “1.0”, “Echinochloa,” for “Echinochloa oryzicola Vasing,”
# [12] = test system: Sagittaria pygmaea Miq.; test: as above; conditions: after 4 weeks
# Experimental: as §1, §2, §3
# as §4, with “Echinochloa, Cyperus difformis L.,” for “Echinochloa,”, “3.0” for “1.0”, “Echinochloa,” for “Echinochloa oryzicola Vasing,”
# [13] = test system: Echinochloa; test: as above; conditions: after 4 weeks
# Experimental: as §1, §2, §3
# as §4, with “Echinochloa, Cyperus difformis L.,” for “Echinochloa,”, “3.0” for “1.0”, “Echinochloa,” for “Echinochloa oryzicola Vasing,”
# [14] = test system: Echinochloa cruss-galli; test: Weed control by spray treatment at 1.5 to 3.0 leaf-stage (Test Example 3); conditions: spray at 1.5 to 3.0 leaf-stage, 4 weeks later
# Experimental: as §1, §2, §3
# (§5) In a greenhouse, seeds of rice (var.: Nipponbare and RD23) and weeds (Echinochloa oryzicola Vasing, Echinochloa cruss-galli, Leptochloa chinensis, Cyperus difformis L., Cyperus iria L., annual broad-leaved weeds (Monochoria vaginalis Presl, Lindernia procumbens Philcox, Lindernia dubia L. Penn., Rotala indica Koehne, Elatine triandra Schk, Ammannia multiflora Roxb. and the like)) were sown in a 500 cm^2 pot filled with paddy field soil and covered with soil. Water was added to the pot (a depth of 0 cm) to be a wet condition, and each test plant was grown in the greenhouse to 1.5 to 3.0 leaf-stage, after then a prescribed, diluted solution of the formulation of each active compound and each herbicidal compound in the table were separately or simultaneously sprayed over the pots with plants. At 3 days after the treatment, the water depth of 3 cm was maintained, and 4 weeks later, herbicidal effect was then examined. In the assessment of the herbicidal effect and the phytotoxicity, 100% refers to complete death and 0% refers to no effect or no phytotoxicity.
# [15] = test system: Cyperus iria L.; test: as above; conditions: spray at 1.5 to 3.0 leaf-stage, 4 weeks later
# Experimental: as §1, §2, §3, §5
# [16] = test system: annual broad-leaved weeds; test: as above; conditions: spray at 1.5 to 3.0 leaf-stage, 4 weeks later
# Experimental: as §1, §2, §3, §5
# [17] = test system: Monochoria vaginalis Presl; test: as above; conditions: spray at 1.5 to 3.0 leaf-stage, 4 weeks later
# Experimental: as §1, §2, §3, §5
# [18] = test system: Leptochloa chinensis; test: as above; conditions: spray at 1.5 to 3.0 leaf-stage, 4 weeks later
# Experimental: as §1, §2, §3, §5
# [19] = test system: Cyperus difformis L.; test: as above; conditions: spray at 1.5 to 3.0 leaf-stage, 4 weeks later
# Experimental: as §1, §2, §3, §5
# [20] = test system: Echinochloa oryzicola Vasing; test: as above; conditions: spray at 1.5 to 3.0 leaf-stage, 4 weeks later
# Experimental: as §1, §2, §3, §5
# [21] = test system: submerged direct sown paddy (Nipponbare); test: Phytotoxicity, spray treatment at 1.5 to 3.0 leaf-stage (Test Example 3)
# Experimental: as §1, §2, §3, §5
# [22] = test system: submerged direct sown paddy (RD-23); test: as above
# Experimental: as §1, §2, §3, §5
# [23] = test system: transplanted rice; test: Phytotoxicity, flooded paddy field, treatment at 1 leaf-stage (Test Example 1)
# Experimental: as §1, §2, §3, §4
structure (smiles),measurement,setting,value
COc1nc(OC)nc(C(O)c2cccc(F)c2N(C)S(=O)(=O)C(F)F)n1 (stereo not drawn) [(a-3)],Herbicidal effect (%) BBBBB,[1]; 30 g ai/ha,20%
same,Herbicidal effect (%) BBBBB,[1]; 50 g ai/ha,35%
same,Herbicidal effect (%) MOOVP,[2]; 30 g ai/ha,20%
same,Herbicidal effect (%) MOOVP,[2]; 50 g ai/ha,40%
same,Herbicidal effect (%) SCPSS,[3]; 30 g ai/ha,60%
same,Herbicidal effect (%) SCPSS,[3]; 50 g ai/ha,60%
same,Herbicidal effect (%) CYPSEE,[4]; 30 g ai/ha,90%
same,Herbicidal effect (%) CYPSEE,[4]; 50 g ai/ha,90%
same,Herbicidal effect (%) SAGPY,[5]; 30 g ai/ha,70%
same,Herbicidal effect (%) SAGPY,[5]; 50 g ai/ha,90%
same,Herbicidal effect (%) ECHSS,[6]; 30 g ai/ha,90%
same,Herbicidal effect (%) ECHSS,[6]; 50 g ai/ha,90%
same,Phytotoxicity (%) ORYSP,"[7]; 30 g ai/ha, treatment at 3 leaf-stage, after 4 weeks",0%
same,Phytotoxicity (%) ORYSP,"[7]; 50 g ai/ha, treatment at 3 leaf-stage, after 4 weeks",0%
same,Herbicidal effect (%) BBBBB,[8]; 30 g ai/ha,3%
same,Herbicidal effect (%) BBBBB,[8]; 50 g ai/ha,8%
same,Herbicidal effect (%) MOOVP,[9]; 30 g ai/ha,10%
same,Herbicidal effect (%) MOOVP,[9]; 50 g ai/ha,13%
same,Herbicidal effect (%) SCPSS,[10]; 30 g ai/ha,60%
same,Herbicidal effect (%) SCPSS,[10]; 50 g ai/ha,60%
same,Herbicidal effect (%) CYPSEE,[11]; 30 g ai/ha,90%
same,Herbicidal effect (%) CYPSEE,[11]; 50 g ai/ha,90%
same,Herbicidal effect (%) SAGPY,[12]; 30 g ai/ha,70%
same,Herbicidal effect (%) SAGPY,[12]; 50 g ai/ha,70%
same,Herbicidal effect (%) ECHSS,[13]; 30 g ai/ha,90%
same,Herbicidal effect (%) ECHSS,[13]; 50 g ai/ha,90%
same,Herbicidal effect (%) ECHCG,[14]; 30 g ai/ha,100%
same,Herbicidal effect (%) ECHCG,[14]; 50 g ai/ha,100%
same,Herbicidal effect (%) CYPIR,[15]; 30 g ai/ha,100%
same,Herbicidal effect (%) CYPIR,[15]; 50 g ai/ha,100%
same,Herbicidal effect (%) BBBBB,[16]; 30 g ai/ha,65%
same,Herbicidal effect (%) BBBBB,[16]; 50 g ai/ha,85%
same,Herbicidal effect (%) MOOVP,[17]; 30 g ai/ha,65%
same,Herbicidal effect (%) MOOVP,[17]; 50 g ai/ha,85%
same,Herbicidal effect (%) LEFCH,[18]; 30 g ai/ha,65%
same,Herbicidal effect (%) LEFCH,[18]; 50 g ai/ha,80%
same,Herbicidal effect (%) CYPDI,[19]; 30 g ai/ha,100%
same,Herbicidal effect (%) CYPDI,[19]; 50 g ai/ha,100%
same,Herbicidal effect (%) ECHOR,[20]; 30 g ai/ha,100%
same,Herbicidal effect (%) ECHOR,[20]; 50 g ai/ha,100%
same,Phytotoxicity (%) ORYSW*^1,"[21]; 30 g ai/ha, spray at 1.5 to 3.0 leaf-stage, 4 weeks later",0%
same,Phytotoxicity (%) ORYSW*^1,"[21]; 50 g ai/ha, spray at 1.5 to 3.0 leaf-stage, 4 weeks later",10%
same,Phytotoxicity (%) ORYSW*^2,"[22]; 30 g ai/ha, spray at 1.5 to 3.0 leaf-stage, 4 weeks later, RD-23",0%
same,Phytotoxicity (%) ORYSW*^2,"[22]; 50 g ai/ha, spray at 1.5 to 3.0 leaf-stage, 4 weeks later, RD-23",0%
same,Phytotoxicity (%) ORYSP,"[23]; 30 g ai/ha, treatment at 1 leaf-stage, after 4 weeks",0%
same,Phytotoxicity (%) ORYSP,"[23]; 50 g ai/ha, treatment at 1 leaf-stage, after 4 weeks",0%
"CCOc1ccccc1OS(=O)(=O)NC(=O)Nc1nc(OC)cc(OC)n1 [(b-5), ethoxysulfuron]",Herbicidal effect (%) BBBBB,[1]; 20 g ai/ha,95%
same,Herbicidal effect (%) MOOVP,[2]; 20 g ai/ha,95%
same,Herbicidal effect (%) SCPSS,[3]; 20 g ai/ha,95%
same,Herbicidal effect (%) CYPSEE,[4]; 20 g ai/ha,60%
same,Herbicidal effect (%) SAGPY,[5]; 20 g ai/ha,90%
same,Herbicidal effect (%) ECHSS,[6]; 20 g ai/ha,30%
same,Phytotoxicity (%) ORYSP,"[7]; rice, in vivo, 4 weeks",0%
same,Herbicidal effect (%) BBBBB,[8]; 20 g ai/ha,60%
same,Herbicidal effect (%) MOOVP,[9]; 20 g ai/ha,80%
same,Herbicidal effect (%) SCPSS,[10]; 20 g ai/ha,90%
same,Herbicidal effect (%) CYPSEE,[11]; 20 g ai/ha,20%
same,Herbicidal effect (%) SAGPY,[12]; 20 g ai/ha,60%
same,Herbicidal effect (%) ECHSS,[13]; 20 g ai/ha,50%
same,Herbicidal effect (%) ECHCG,[14]; 20 g ai/ha,10%
same,Herbicidal effect (%) CYPIR,[15]; 20 g ai/ha,100%
same,Herbicidal effect (%) BBBBB,[16]; 20 g ai/ha,90%
same,Herbicidal effect (%) MOOVP,[17]; 20 g ai/ha,95%
same,Herbicidal effect (%) LEFCH,[18]; 20 g ai/ha,15%
same,Herbicidal effect (%) CYPDI,[19]; 20 g ai/ha,100%
same,Herbicidal effect (%) ECHOR,[20]; 20 g ai/ha,15%
same,Phytotoxicity (%) ORYSW*^1,"[21]; rice, in vivo, 4 weeks",10%
same,Phytotoxicity (%) ORYSW*^2,"[22]; RD-23, rice, in vivo, 4 weeks",10%
same,Phytotoxicity (%) ORYSP,"[23]; rice, in vivo, 4 weeks",10%
